# Source: ChEMBL document CHEMBL1158670, “Mediation of the cytotoxicity of lanostanoids and steroids of Ganoderma tsugae through apoptosis and cell cycle” (J Nat Prod, 1998)
# The source made the active and inactive calls. No cut-off for these calls is given here.
# How the values were obtained:
# [1] = Cell cycle arrest in human Hep3B cells by accumulation at G0/G1 phase at 20 ug/mL after 24 hrs by flow cytometry; assay type: functional, cell-based; conditions: Hep 3B2
# [2] = Cell cycle arrest in human Hep3B cells by accumulation at S phase at 20 ug/mL after 24 hrs by flow cytometry; assay type: functional, cell-based; conditions: Hep 3B2
# [3] = Cell cycle arrest in human Hep3B cells by accumulation at G2/M phase at 20 ug/mL after 24 hrs by flow cytometry; assay type: functional, cell-based; conditions: Hep 3B2
# [4] = Cell cycle arrest in human Hep3B cells by accumulation at G0/G1 phase at 35 ug/mL after 24 hrs by flow cytometry; assay type: functional, cell-based; conditions: Hep 3B2
# [5] = Cell cycle arrest in human Hep3B cells by accumulation at S phase at 35 ug/mL after 24 hrs by flow cytometry; assay type: functional, cell-based; conditions: Hep 3B2
# [6] = Cell cycle arrest in human Hep3B cells by accumulation at G2/M phase at 35 ug/mL after 24 hrs by flow cytometry; assay type: functional, cell-based; conditions: Hep 3B2
# [7] = Cell cycle arrest in human Hep3B cells by accumulation at G0/G1 phase at 50 ug/mL after 24 hrs by flow cytometry; assay type: functional, cell-based; conditions: Hep 3B2
# [8] = Cell cycle arrest in human Hep3B cells by accumulation at S phase at 50 ug/mL after 24 hrs by flow cytometry; assay type: functional, cell-based; conditions: Hep 3B2
# [9] = Cell cycle arrest in human Hep3B cells by accumulation at G2/M phase at 50 ug/mL after 24 hrs by flow cytometry; assay type: functional, cell-based; conditions: Hep 3B2
# [10] = Cell cycle arrest in human Hep3B cells by accumulation at G0/G1 phase at 100 ug/mL after 24 hrs by flow cytometry; assay type: functional, cell-based; conditions: Hep 3B2
# [11] = Cell cycle arrest in human Hep3B cells by accumulation at S phase at 100 ug/mL after 24 hrs by flow cytometry; assay type: functional, cell-based; conditions: Hep 3B2
# [12] = Cell cycle arrest in human Hep3B cells by accumulation at G2/M phase at 100 ug/mL after 24 hrs by flow cytometry; assay type: functional, cell-based; conditions: Hep 3B2
# [13] = Cell cycle arrest in human Hep3B cells by accumulation at G2/M phase after 24 hrs by flow cytometry; assay type: functional, cell-based, Hep 3B2
# [14] = Cell cycle arrest in human Hep3B cells by accumulation at subG1 phase at 24 ug/mL after 24 hrs by flow cytometry; assay type: functional, cell-based; conditions: Hep 3B2
smiles,measurement,setting,value
CC(C)[C@@H](C)/C=C/[C@@H](C)[C@H]1CC[C@H]2C3=CC[C@H]4C[C@H](O)[C@@H](O)C[C@]4(C)[C@@]3(O)CC[C@]12C,Activity,[1],50.6%
same,Activity,[2],36.8%
same,Activity,[3],12.6%
same,Activity,[4],55.3%
same,Activity,[5],35%
same,Activity,[6],9.8%
same,Activity,[7],55.3%
same,Activity,[8],35.5%
same,Activity,[9],9.2%
same,Activity,[10],57.8%
same,Activity,[11],37%
same,Activity,[12],5.2%
same,IC50,[13],87.1 µg/mL
CC(=O)O[C@@H]1CC[C@]2(C)C3=C(CC[C@H]2C1(C)C)[C@]1(C)CC[C@H]([C@@H](CCC=C(C)C)C(=O)O[C@@H]2O[C@H](CO)[C@@H](O)[C@H](O)[C@H]2O)[C@@]1(C)CC3,Activity,[14],Active
